According to patent US9486394B2, “Pharmaceutical foam” (STIEFEL WEST COAST, LLC, priority 2003, dated 2016):

How the values were obtained:
[1] = Stability with different can linings (Example 2); type: physicochemical; conditions: 4 weeks
Experimental: Low buffer levels at a pH of 4.5 or 6.5, including unbuffered pH 4.5, were tested in cans with either epoxy-phenolic, polyamide-imide (PAM), or Micoflex linings. Some of the PAM-lined cans were scratched internally to check for corrosion on bare aluminum. Cans were stored at 4° C., 40° C., and 50° C. for 4 weeks and then examined.

[2] = Stability, citrate buffer pH, epoxy-phenolic lined cans (Example 1); conditions: 1 month
Experimental: In this study, a citrate buffer solution was used to adjust the pH of the mixture to pH 4.5, pH 5.5, and pH 6.5 using four different buffer concentrations (i.e., 0, 0.1, 0.3, 0.5%) and two alternative emollients or humectants, i.e., propylene glycol and glycerin. The containers were stored at 50° C. for 1 month and then examined.

SMILES: CCC[C@@H]1C[C@@H](C(=O)N[C@@H]([C@H]2O[C@H](SC)[C@H](OP(=O)(O)O)[C@@H](O)[C@H]2O)[C@H](C)Cl)N(C)C1 [clindamycin phosphate]
- clindamycin phosphate stability in PAM-lined container ([1]; FIG. 4): unexpectedly high
- degradation of clindamycin phosphate ([1]; 40° C.): moderate degradation
- degradation of clindamycin phosphate ([1]; 50° C.): relatively severe degradation
- clindamycin phosphate degradation at higher buffer levels ([2]; citrate buffer 0.5%, 0.3% vs 0.1%, 0.0%, 50° C.): higher amount of clindamycin phosphate degradation
- stability of clindamycin phosphate as a function of pH ([2]; pH 4.5, 5.5, 6.5, 50° C., FIG. 3): more stable at a lower pH level
